Reference: BindingDB's records for doi:10.3109/14756360903179377 (Graduate University of Chinese Academy of Sciences, 2010)

Each molecule was assayed against Fatty acid synthase (Gallus gallus, UniProt P12276) (assay: FAS Activity Assay). Details: pH 7; 37 °C.
Fatty acid synthase, sequence (P12276 whole entry): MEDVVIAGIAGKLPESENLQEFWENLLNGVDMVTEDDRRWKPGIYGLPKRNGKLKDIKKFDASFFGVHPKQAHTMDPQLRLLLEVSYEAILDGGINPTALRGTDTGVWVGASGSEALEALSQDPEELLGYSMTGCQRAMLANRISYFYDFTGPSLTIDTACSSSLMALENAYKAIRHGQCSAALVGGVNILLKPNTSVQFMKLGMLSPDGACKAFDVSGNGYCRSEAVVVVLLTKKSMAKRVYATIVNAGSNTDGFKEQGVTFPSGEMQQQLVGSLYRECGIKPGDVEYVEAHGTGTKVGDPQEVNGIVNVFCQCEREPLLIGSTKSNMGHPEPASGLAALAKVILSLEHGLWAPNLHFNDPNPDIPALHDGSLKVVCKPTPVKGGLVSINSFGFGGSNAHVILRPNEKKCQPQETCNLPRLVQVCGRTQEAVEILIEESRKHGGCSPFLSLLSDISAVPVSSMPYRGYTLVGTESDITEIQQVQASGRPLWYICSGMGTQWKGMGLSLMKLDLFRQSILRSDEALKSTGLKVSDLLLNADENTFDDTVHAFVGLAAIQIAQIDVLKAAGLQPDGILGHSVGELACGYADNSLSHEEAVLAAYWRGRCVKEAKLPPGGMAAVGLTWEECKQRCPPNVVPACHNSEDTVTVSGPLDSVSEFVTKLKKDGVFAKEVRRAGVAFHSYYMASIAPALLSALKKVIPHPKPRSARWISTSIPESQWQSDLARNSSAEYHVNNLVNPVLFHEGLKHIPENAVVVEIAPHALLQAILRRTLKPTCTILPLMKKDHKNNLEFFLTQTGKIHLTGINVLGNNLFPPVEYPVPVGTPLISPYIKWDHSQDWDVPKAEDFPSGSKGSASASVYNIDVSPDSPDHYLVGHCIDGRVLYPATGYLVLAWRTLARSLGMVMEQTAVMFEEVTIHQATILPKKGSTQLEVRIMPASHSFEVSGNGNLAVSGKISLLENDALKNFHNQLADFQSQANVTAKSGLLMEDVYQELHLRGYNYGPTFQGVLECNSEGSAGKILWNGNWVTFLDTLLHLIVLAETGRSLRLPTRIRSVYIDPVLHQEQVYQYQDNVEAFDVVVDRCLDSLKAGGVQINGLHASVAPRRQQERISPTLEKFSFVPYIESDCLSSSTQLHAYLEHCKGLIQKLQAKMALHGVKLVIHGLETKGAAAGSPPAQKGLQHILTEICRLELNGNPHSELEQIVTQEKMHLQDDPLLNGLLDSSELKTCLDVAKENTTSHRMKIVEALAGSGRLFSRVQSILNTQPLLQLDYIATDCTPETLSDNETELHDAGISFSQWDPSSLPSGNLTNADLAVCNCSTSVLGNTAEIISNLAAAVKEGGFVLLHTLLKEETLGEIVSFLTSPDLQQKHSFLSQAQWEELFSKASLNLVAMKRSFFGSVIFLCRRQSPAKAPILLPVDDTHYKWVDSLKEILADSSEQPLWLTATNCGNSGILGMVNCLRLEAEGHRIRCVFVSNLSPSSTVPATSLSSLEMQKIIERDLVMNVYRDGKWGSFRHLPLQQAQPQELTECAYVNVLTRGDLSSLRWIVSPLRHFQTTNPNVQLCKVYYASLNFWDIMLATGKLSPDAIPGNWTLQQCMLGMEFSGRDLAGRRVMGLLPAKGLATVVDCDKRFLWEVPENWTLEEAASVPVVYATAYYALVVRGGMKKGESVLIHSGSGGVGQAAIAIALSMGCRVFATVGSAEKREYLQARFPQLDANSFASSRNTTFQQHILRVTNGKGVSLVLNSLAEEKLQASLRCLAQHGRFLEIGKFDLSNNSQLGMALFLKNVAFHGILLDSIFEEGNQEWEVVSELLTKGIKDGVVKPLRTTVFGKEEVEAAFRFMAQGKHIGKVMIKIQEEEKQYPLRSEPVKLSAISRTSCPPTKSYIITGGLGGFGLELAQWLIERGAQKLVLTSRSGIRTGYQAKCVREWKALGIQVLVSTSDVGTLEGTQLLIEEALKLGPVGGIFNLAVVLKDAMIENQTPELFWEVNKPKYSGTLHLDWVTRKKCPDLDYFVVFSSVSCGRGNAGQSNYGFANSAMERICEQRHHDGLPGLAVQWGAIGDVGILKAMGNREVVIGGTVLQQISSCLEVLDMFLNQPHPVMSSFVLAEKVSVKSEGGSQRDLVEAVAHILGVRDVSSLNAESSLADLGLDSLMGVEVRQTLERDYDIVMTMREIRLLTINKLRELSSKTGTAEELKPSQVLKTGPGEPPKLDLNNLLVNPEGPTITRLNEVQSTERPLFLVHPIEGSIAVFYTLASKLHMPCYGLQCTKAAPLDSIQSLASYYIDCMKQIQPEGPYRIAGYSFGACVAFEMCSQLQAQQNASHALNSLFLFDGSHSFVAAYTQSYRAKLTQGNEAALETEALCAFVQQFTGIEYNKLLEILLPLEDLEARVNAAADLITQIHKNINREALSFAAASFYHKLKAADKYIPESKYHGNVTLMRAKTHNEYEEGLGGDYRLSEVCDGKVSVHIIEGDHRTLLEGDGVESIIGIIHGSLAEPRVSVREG
Description: FAS activity was determined by monitoring the decrease in absorbence at 340 nm resulting from the oxidation of NADPH using an Amersham Pharmacia Ultrospec 4300 pro UV-Vis spectrophotometer at 37°C. The assay mixture contained 100 mM potassium phosphate buffer, pH 7.0, 1 mM EDTA (ethylenediaminetetraacetic acid), 2.5 μM acetyl-CoA, 10 μM malonyl-CoA, 32 μM NADPH, and 10 μg chicken liver FAS in a total volume of 2.0 mL [Tian et al., J. Biol. Chem., 260:11375-87]. Fast inhibition was determined by adding thioether to the reaction system before FAS initiated the reaction. The initial velocity was measured to calculate the remaining activity (RA) of FAS, and each assay was repeated three times.
With `C=CCSSCC=C` [3-Allyldisulfanyl-propene] the IC50 was 145 µM. With `C=CCSSSCC=C` [Diallyl trisulfide] the IC50 was 8.37 µM. `CSSC` [Dimethyl disulfide] gave an IC50 of 2210 µM.
